The source of these data is patent US20090222217A1, “Method of calculating environment risk of a chemical in soil” (AMSTED Industries Inc., priority 2008, published 2009).

The conditions of data set [1]: sand, Foc 0.0003 mg/mg; Kd=Foc×Koc. On the procedure:
To obtain a value to represent the mobility of each compound, two variables are used: Henry's Law constant (H), which focuses on the physical chemistry of the chemical and the retardation factor (R), which focuses on the physical and chemical characteristics of the geological environment. The retardation factor was calculated by first calculating the distribution coefficient using Equation 1.
Values for the organic carbon partition coefficient can be obtained from location-specific testing of soil or from various published sources. And the fraction of organic carbon in soil can be obtained from location-specific testing of soil or from various published sources.

The conditions of data set [2]: published sources; cited from earlier work.
For data set [3] the following is noted: more conservative of carcinogenic or chronic, oral or dermal pathway; published sources; cited from earlier work.
For data set [4] the following is noted: M=(H)(R), sand. An excerpt: With Henry's Law constant and the retardation factor in place, the mobility of a specific compound is expressed as Equation (4):
where: M=mobility; H=Henry's Law constant; R=retardation factor

The conditions of data set [5]: sand, bulk density 1.8 g/cm^3, effective porosity 0.25. On the procedure:
Once the distribution coefficient is calculated, the Retardation Factor can be calculated using Equation 2.
where: R is the retardation factor; ρb=bulk density of aquifer matrix (g/cm^3); Kd=distribution coefficient (mL·g^−1); η=effective porosity

Regarding `c1ccccc1` [benzene], the “Kd, distribution coefficient” value in data set [1] is 0.0177 mL/g. In data set [2], the “Henry's Law constant (H)” value was 0.228 atm.·mol^−1·m^−3. In addition, in data set [3], the “toxicity value (T)” value is recorded as 0.04 mg/kg-day^−1. The “mobility factor (M)” value in data set [4] was determined as 0.2576. Further, the “retardation factor (R)” value in data set [5] is reported as 1.13.
